# Assays:
# Experiment in all cases: relative viability (nuclei count vs DMSO), 5 days (fraction); higher = more cells survive
# Vemurafenib = compound: CCCS(=O)(=O)Nc1ccc(F)c(C(=O)c2c[nH]c3ncc(-c4ccc(Cl)cc4)cc23)c1F [Vemurafenib]
# Procedure, shortened: (§1)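 Lung cancer cell lines in 1536-well plates were kept overnight at 37 °C, then pinned with five library-drug doses (not always all listed) spaced by √10 on vehicle-anchored plates. After 5 days without medium change, cells were fixed, permeabilised and Hoechst-stained in one step, imaged at 4×, and nuclei were counted with MetaXpress. Viability is treated-well nuclei divided by vehicle-well nuclei, taken as the median over plates. Plates passed only with control CV below 25% and at least one doubling.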
# Alpelisib = compound: Cc1nc(NC(=O)N2CCC[C@H]2C(N)=O)sc1-c1ccnc(C(C)(C)C(F)(F)F)c1 [Alpelisib]
# Procedure, shortened: as §1
# OSI-027 = compound: COc1cccc2cc(-c3nc([C@H]4CC[C@H](C(=O)O)CC4)n4ncnc(N)c34)[nH]c12 [OSI-027]
# Procedure, shortened: as §1
Cell Line,relative viability (Vemurafenib; 0.03162 µM),relative viability (Vemurafenib; 0.1 µM),relative viability (Vemurafenib; 0.3162 µM),relative viability (Vemurafenib; 1 µM),relative viability (Alpelisib; 0.04 µM),relative viability (Alpelisib; 0.1265 µM),relative viability (Alpelisib; 0.4 µM),relative viability (Alpelisib; 1.265 µM),"relative viability (Alpelisib; 2 µM, anchor plate)",relative viability (Alpelisib; 4 µM),relative viability (OSI-027; 0.01 µM),relative viability (OSI-027; 0.03162 µM),relative viability (OSI-027; 0.1 µM),relative viability (OSI-027; 0.3162 µM),"relative viability (OSI-027; 0.5 µM, anchor plate)",relative viability (OSI-027; 1 µM)
A-427,0.953,0.973,0.852,0.989,0.98,0.886,0.965,0.871,1.09,0.911,0.891,0.946,0.794,0.722,0.47,0.619
NCI-H1703,1.02,0.864,0.795,0.986,0.89,0.642,0.654,0.465,0.348,0.462,0.913,0.948,0.759,0.657,–,0.434
HCC-366,1.01,0.969,–,1.09,0.935,1,1.09,0.947,0.443,0.627,1.05,0.962,1.08,1.05,0.911,0.803
NCI-H661,0.975,0.929,1.02,0.971,0.973,1.02,1.01,0.924,0.719,0.909,0.977,0.952,0.958,0.95,0.735,0.581
NCI-H2126,0.925,0.845,0.966,0.988,1.02,1.01,0.936,0.791,0.746,0.758,0.977,1.02,0.943,0.873,0.722,0.664
LCLC-97TM1,0.989,1.05,1.02,0.912,0.873,0.845,1.01,0.796,0.257,0.521,0.87,0.869,0.888,0.594,0.536,0.375
NCI-H2405,0.945,0.955,–,0.98,1.02,0.965,0.973,0.824,0.749,0.703,0.981,0.981,0.887,0.795,0.646,0.518
COR-L 105,0.772,–,0.908,1.03,0.931,1,1.21,0.876,1.03,0.853,0.907,0.945,0.814,0.835,0.775,0.762
BEN,0.923,0.987,0.569,0.8,0.99,0.913,1.15,1.01,1.04,0.847,0.882,0.82,0.647,0.475,0.296,0.299
HCC-827,1.05,–,0.95,1.07,1.02,0.935,1.05,0.981,0.945,1,1.08,1.02,1.04,1.04,0.792,0.956
NCI-H3122,1.03,0.979,1.03,1.12,0.981,1.02,1.02,0.968,0.759,0.744,1.03,1.02,1.08,0.959,1.03,0.704
NCI-H1299,1.01,0.98,0.895,0.991,1.03,1.04,1.07,0.988,1.04,0.945,1,0.995,1.02,1.06,–,0.825
LK-2,0.944,0.937,1.05,0.66,0.885,0.868,0.685,0.563,1.1,0.599,1.02,0.914,0.703,0.515,0.221,0.191
HCC-15,0.926,1.03,0.854,0.989,1.02,0.938,1.07,0.886,0.852,0.759,0.981,0.977,0.983,0.899,0.692,0.708
IA-LM,0.837,0.888,0.86,0.851,0.979,0.854,1.02,0.753,0.799,0.717,0.888,0.779,0.671,0.293,–,0.151
NCI-H1755,0.958,0.969,0.823,0.957,0.989,1.01,0.986,0.876,0.942,0.853,0.983,0.921,0.988,0.898,0.745,0.78
EMC-BAC-2,0.893,0.977,0.624,0.826,0.95,0.821,0.981,0.672,0.751,0.604,0.938,1.02,0.824,0.644,0.39,0.474
NCI-H838,0.924,0.988,–,1.03,0.863,0.921,0.933,0.706,1.03,0.689,0.93,0.898,0.782,0.607,0.404,0.408
NCI-H1650,0.774,0.701,0.924,1.01,0.935,0.801,1.06,0.814,–,0.815,0.937,0.843,0.912,0.893,0.689,0.421
NCI-H1975,0.922,0.9,0.696,0.886,0.918,0.968,0.984,0.664,0.679,0.561,0.977,0.924,0.926,0.953,0.729,0.622
NCI-H522,0.913,0.959,0.852,0.867,0.939,0.903,0.923,0.807,–,0.736,1,1.03,0.819,0.767,0.745,0.77
NCI-H1437,0.904,0.958,0.974,1.05,1,0.948,1.06,0.864,0.965,0.89,1,0.921,1.01,0.914,0.881,0.565

Cell Line,relative viability (Vemurafenib; 0.03162 µM),relative viability (Vemurafenib; 0.1 µM),relative viability (Vemurafenib; 0.3162 µM),relative viability (Vemurafenib; 1 µM),relative viability (Alpelisib; 0.04 µM),relative viability (Alpelisib; 0.1265 µM),relative viability (Alpelisib; 0.4 µM),relative viability (Alpelisib; 1.265 µM),"relative viability (Alpelisib; 2 µM, anchor plate)",relative viability (Alpelisib; 4 µM),relative viability (OSI-027; 0.01 µM),relative viability (OSI-027; 0.03162 µM),relative viability (OSI-027; 0.1 µM),relative viability (OSI-027; 0.3162 µM),"relative viability (OSI-027; 0.5 µM, anchor plate)",relative viability (OSI-027; 1 µM)
NCI-H1666,0.946,0.902,1.1,0.926,0.997,0.98,1.13,0.84,0.977,0.8,0.99,0.986,0.98,0.88,0.863,0.666
NCI-H647,0.913,0.925,0.655,0.942,0.917,0.925,1.06,0.757,1.18,0.832,0.943,0.889,0.892,0.705,0.654,0.427
NCI-H1623,0.977,–,1.23,0.99,0.853,0.893,1.07,0.629,–,0.631,1.1,0.912,1.02,0.77,0.433,0.427
NCI-H23,0.918,0.967,0.838,0.871,0.94,0.798,0.913,0.739,0.78,0.706,0.906,0.96,0.808,0.784,0.612,0.54
NCI-H1915,0.948,0.964,0.755,0.845,1.01,0.998,0.976,0.948,1.06,0.893,1.05,1.09,0.967,0.891,0.601,0.791
HOP-62,0.961,1.05,0.858,0.875,1.04,1.06,1.1,0.863,0.974,0.955,1,1.07,1,0.957,0.831,0.75
NCI-H2342,0.938,0.94,0.86,0.992,0.927,1.05,0.926,0.79,–,0.675,0.975,0.949,0.966,0.843,0.622,0.649
NCI-H520,0.944,0.944,1.08,0.924,0.891,0.935,1.11,0.725,0.945,0.503,1.15,0.972,0.73,0.628,0.261,0.34
COR-L23,0.943,0.979,0.927,1.09,0.959,1.09,1.08,0.837,0.739,0.786,1.11,0.94,1.04,0.943,0.769,0.537
A549,0.939,0.942,0.945,0.963,0.905,0.877,0.953,0.774,0.84,0.538,0.95,0.839,0.94,0.788,–,0.34
H3255,0.918,–,1.01,0.917,1.03,0.936,1.09,0.755,0.698,0.743,0.98,1.11,0.893,0.874,0.629,0.638
NCI-H1993,0.844,–,0.993,0.974,0.862,0.86,0.961,0.698,0.707,0.609,0.803,0.817,0.704,0.611,0.558,0.438
NCI-H1792,0.776,0.904,0.624,0.914,0.89,0.724,0.819,0.636,0.728,0.383,0.658,0.841,0.843,0.709,0.784,0.374
SW 1573,0.916,0.927,0.957,0.941,0.98,0.916,0.94,0.704,0.733,0.649,0.951,0.892,0.938,0.878,0.671,0.655
NCI-H2085,0.89,0.885,0.805,1.02,0.988,0.943,1.01,0.93,0.984,0.889,0.962,0.967,0.928,0.926,0.789,0.658
EPLC-272H,0.889,0.854,1.01,0.903,0.898,0.864,0.984,0.778,0.92,0.61,0.972,0.934,0.78,0.514,0.289,0.439
HARA,0.892,0.652,0.701,0.864,0.921,1.17,0.995,0.817,0.805,0.504,1.02,1.01,0.791,0.936,0.498,0.55
LU99A,0.93,0.946,0.74,0.895,0.899,0.96,1.04,0.773,0.511,0.696,0.953,0.894,0.831,0.451,0.307,0.27
NCI-H2087,1.01,1.11,–,1.13,1.21,1.02,1.08,0.868,1,0.85,0.986,1.03,0.911,0.911,0.605,0.508
EBC-1,0.943,0.929,0.986,1.03,0.942,0.904,1.15,0.853,0.866,0.862,0.943,0.837,0.909,0.886,–,0.361
NCI-H1734,0.967,1.02,0.779,0.875,0.917,0.857,1,0.644,0.674,0.508,0.962,0.991,0.826,0.785,0.615,0.684
